Results taken from ChEMBL document CHEMBL2424636, “Synthesis and anticancer activity evaluation of new 1,2,3-triazole-4-carboxamide derivatives” (2013).

Legend:
Format in all cases: functional
[1] = system: U-251; assay: Cytotoxicity against human U251 cells assessed as cell growth at 10^-5 M after 48 hrs by SRB assay; settings: U-251, 48 h, read-out: Activity
[2] = system: HOP-62; assay: Cytotoxicity against human HOP62 cells assessed as cell growth at 10^-5 M after 48 hrs by SRB assay; settings: HOP-62, 48 h, read-out: Activity
[3] = system: SNB-75; assay: Cytotoxicity against human SNB75 cells assessed as cell growth at 10^-5 M after 48 hrs by SRB assay; settings: SNB-75, 48 h, read-out: Activity
[4] = system: SF-268; assay: Cytotoxicity against human SF268 cells assessed as cell growth at 10^-5 M after 48 hrs by SRB assay; settings: SF-268, 48 h, read-out: Activity
[5] = system: OVCAR-8; assay: Cytotoxicity against human OVCAR8 cells assessed as cell growth at 10^-5 M after 48 hrs by SRB assay; settings: OVCAR-8, 48 h, read-out: Activity
[6] = system: UO-31; assay: Cytotoxicity against human UO31 cells assessed as cell growth at 10^-5 M after 48 hrs by SRB assay; settings: UO-31, 48 h, read-out: Activity
[7] = system: CCRF-CEM; assay: Cytotoxicity against human CCRF-CEM cells assessed as cell growth at 10^-5 M after 48 hrs by SRB assay; settings: read-out: Activity
[8] = Cytotoxicity against human EKVX cells assessed as cell growth at 10^-5 M after 48 hrs by SRB assay; settings: read-out: Activity
[9] = system: RPMI-8226; assay: Cytotoxicity against human RPMI8226 cells assessed as cell growth at 10^-5 M after 48 hrs by SRB assay; settings: RPMI-8226, 48 h, read-out: Activity
[10] = system: UACC-62; assay: Cytotoxicity against human UACC62 cells assessed as cell growth at 10^-5 M after 48 hrs by SRB assay; settings: UACC-62, 48 h, read-out: Activity
[11] = system: T47D; assay: Cytotoxicity against human T47D cells assessed as cell growth at 10^-5 M after 48 hrs by SRB assay; settings: read-out: Activity
[12] = system: SK-MEL-5; assay: Cytotoxicity against human SK-MEL-5 cells assessed as cell growth at 10^-5 M after 48 hrs by SRB assay; settings: SK-MEL-5, 48 h, read-out: Activity
[13] = system: MOLT-4; assay: Cytotoxicity against human MOLT4 cells assessed as cell growth at 10^-5 M after 48 hrs by SRB assay; settings: MOLT-4, 48 h, read-out: Activity
[14] = system: SR; assay: Cytotoxicity against human SR cells assessed as cell growth at 10^-5 M after 48 hrs by SRB assay; settings: read-out: Activity
[15] = system: PC-3; assay: Cytotoxicity against human PC3 cells assessed as cell growth at 10^-5 M after 48 hrs by SRB assay; settings: PC-3, 48 h, read-out: Activity
[16] = system: HOP-92; assay: Cytotoxicity against human HOP92 cells assessed as cell growth at 10^-5 M after 48 hrs by SRB assay; settings: HOP-92, 48 h, read-out: Activity
[17] = system: Hs-578T; assay: Cytotoxicity against human Hs578T cells after 48 hrs by SRB assay
[18] = system: TK-10; assay: Cytotoxicity against human TK10 cells after 48 hrs by SRB assay; settings: TK-10, 48 h; for TGI: read-out: pTGI
[19] = system: SF-268; assay: Cytotoxicity against human SF268 cells after 48 hrs by SRB assay; settings: SF-268, 48 h
[20] = system: RXF 393; assay: Cytotoxicity against human RXF393 cells after 48 hrs by SRB assay; settings: RXF 393, 48 h; for TGI: read-out: pTGI (converted)
[21] = system: HOP-92; assay: Cytotoxicity against human HOP92 cells after 48 hrs by SRB assay; settings: HOP-92, 48 h
[22] = system: U-251; assay: Cytotoxicity against human U251 cells after 48 hrs by SRB assay; settings: U-251, 48 h; for TGI: read-out: pTGI
[23] = system: K562; assay: Cytotoxicity against human K562 cells after 48 hrs by SRB assay; settings: K562, 48 h
[24] = system: SNB-75; assay: Cytotoxicity against human SNB75 cells after 48 hrs by SRB assay; settings: SNB-75, 48 h; for TGI: read-out: pTGI (converted)
[25] = system: Malme-3M; assay: Cytotoxicity against human MALME-3M cells after 48 hrs by SRB assay; settings: for TGI: read-out: pTGI
[26] = system: SF-295; assay: Cytotoxicity against human SF295 cells after 48 hrs by SRB assay; settings: SF-295, 48 h
[27] = system: MDA-MB-231; assay: Cytotoxicity against human MDA-MB-231/ATCC cells after 48 hrs by SRB assay; settings: MDA-MB-231, 48 h; for TGI: read-out: pTGI
[28] = system: SR; assay: Cytotoxicity against human SR cells after 48 hrs by SRB assay
[29] = system: SF-539; assay: Cytotoxicity against human SF539 cells after 48 hrs by SRB assay; settings: SF-539, 48 h; for TGI: read-out: pTGI
[30] = system: OVCAR-4; assay: Cytotoxicity against human OVCAR4 cells after 48 hrs by SRB assay; settings: OVCAR-4, 48 h
[31] = system: 786-0; assay: Cytotoxicity against human 786-0 cells assessed as cell growth at 10^-5 M after 48 hrs by SRB assay; settings: 786-0, 48 h, read-out: Activity
[32] = system: RXF 393; assay: Cytotoxicity against human RXF393 cells assessed as cell growth at 10^-5 M after 48 hrs by SRB assay; settings: RXF 393, 48 h, read-out: Activity
[33] = system: SK-OV-3; assay: Cytotoxicity against human SKOV3 cells after 48 hrs by SRB assay; settings: SK-OV-3, 48 h; for TGI: read-out: pTGI
[34] = system: SF-539; assay: Cytotoxicity against human SF539 cells assessed as cell growth at 10^-5 M after 48 hrs by SRB assay; settings: SF-539, 48 h, read-out: Activity
[35] = system: MCF7; assay: Cytotoxicity against human MCF7 cells assessed as cell growth at 10^-5 M after 48 hrs by SRB assay; settings: MCF7, 48 h, read-out: Activity
[36] = system: A498; assay: Cytotoxicity against human A498 cells assessed as cell growth at 10^-5 M after 48 hrs by SRB assay; settings: A498, 48 h, read-out: Activity
[37] = system: MDA-MB-468; assay: Cytotoxicity against human MDA-MB-468 cells assessed as cell growth at 10^-5 M after 48 hrs by SRB assay; settings: MDA-MB-468, 48 h, read-out: Activity

Question: With `COc1ccccc1-n1nnc(C(=O)Nc2ncc(Cc3ccccc3)s2)c1C` as the compound, how does the growth at 10 µM [1] read?
Answer: 75.6%

Question: And the growth at 10 µM [2]?
Answer: 54.8%

Question: What about the growth at 10 µM [3] of the same compound?
Answer: 53.9%

Question: What about the growth at 10 µM [4] of the same compound?
Answer: 75.5%

Question: What about the growth at 10 µM [5] of the same compound?
Answer: 68%

Question: What about the growth at 10 µM [6] of the same compound?
Answer: 73.3%

Question: Which growth at 10 µM [7] does the source give for `Cc1ccc(-n2nnc(C(=O)Nc3ncc(Cc4cccc(Cl)c4)s3)c2C)cc1` here?
Answer: 63.3%

Question: And the growth at 10 µM [8]?
Answer: 74.9%

Question: And the growth at 10 µM [9]?
Answer: 62.7%

Question: And the growth at 10 µM [10]?
Answer: 76.6%

Question: What about the growth at 10 µM [6] of the same compound?
Answer: 70.8%

Question: What does the source list for `Cc1ccccc1-n1nnc(C(=O)Nc2ccc(Cl)cc2Cl)c1N`?
Answer: growth at 10 µM [11]: 60.9%; growth at 10 µM [12]: 55.9%; growth at 10 µM [8]: 56.7%; growth at 10 µM [9]: 59.6%

Question: Which results are given for `Cc1ccc(-n2nnc(C(=O)NCc3ccccc3)c2N)cc1`?
Answer: growth at 10 µM [13]: 75.8%; growth at 10 µM [14]: 68.2%

Question: With `COc1ccc(NC(=O)c2nnn(-c3ccc(C)cc3)c2N)cc1` as the compound, how does the growth at 10 µM [15] read?
Answer: 74.3%

Question: And the growth at 10 µM [16]?
Answer: 69.4%

Question: Which GI50 [17] does the source give for `Cc1ccc(-n2nnc(C(=O)Nc3cc(Cl)ccc3Cl)c2N)cc1` here?
Answer: 4.47 µM

Question: And the TGI ([17]; read-out: pTGI)?
Answer: > 100 µM

Question: And the GI50 [18]?
Answer: 5.89 µM

Question: And the TGI [18]?
Answer: > 100 µM

Question: And the GI50 [19]?
Answer: 5.5 µM

Question: And the TGI ([19]; read-out: pTGI)?
Answer: > 100 µM

Question: And the GI50 [20]?
Answer: 3.47 µM

Question: What about the TGI [20] of the same compound?
Answer: 50.1 µM

Question: What about the GI50 [21] of the same compound?
Answer: 0.589 µM

Question: And the TGI ([21]; read-out: pTGI (converted))?
Answer: 5.89 µM

Question: And the GI50 [22]?
Answer: 6.03 µM

Question: What about the TGI [22] of the same compound?
Answer: > 100 µM

Question: What about the GI50 [23] of the same compound?
Answer: 7.76 µM

Question: And the TGI ([23]; read-out: pTGI)?
Answer: > 100 µM

Question: And the growth at 10 µM [16]?
Answer: -3.42%

Question: And the GI50 [24]?
Answer: 1.38 µM

Question: And the TGI [24]?
Answer: 6.03 µM

Question: And the growth at 10 µM [3]?
Answer: 1.32%

Question: What about the GI50 [25] of the same compound?
Answer: 2.45 µM

Question: What about the TGI [25] of the same compound?
Answer: > 100 µM

Question: What about the GI50 [26] of the same compound?
Answer: 5.01 µM

Question: And the TGI ([26]; read-out: pTGI)?
Answer: > 100 µM

Question: What about the GI50 [27] of the same compound?
Answer: 6.17 µM

Question: What about the TGI [27] of the same compound?
Answer: > 100 µM

Question: What about the GI50 [28] of the same compound?
Answer: 2.51 µM

Question: What about the TGI ([28]; read-out: pTGI (converted)) of the same compound?
Answer: 60.3 µM

Question: What about the GI50 [29] of the same compound?
Answer: 4.27 µM

Question: What about the TGI [29] of the same compound?
Answer: > 100 µM

Question: What about the GI50 [30] of the same compound?
Answer: 1.62 µM

Question: And the TGI ([30]; read-out: pTGI)?
Answer: > 100 µM

Question: And the growth at 10 µM [31]?
Answer: 2.96%

Question: And the growth at 10 µM [32]?
Answer: -13.4%

Question: What about the growth at 10 µM [6] of the same compound?
Answer: -7.62%

Question: What about the GI50 [33] of the same compound?
Answer: 2.82 µM

Question: What about the TGI [33] of the same compound?
Answer: > 100 µM

Question: With `CCc1nnc(NC(=O)c2nnn(-c3ccc(C)cc3)c2N)s1` as the compound, how does the growth at 10 µM [11] read?
Answer: 77.4%

Question: And the growth at 10 µM [16]?
Answer: 71.5%

Question: What about the growth at 10 µM [3] of the same compound?
Answer: 76.2%

Question: What does the source list for `Cc1cc(C)cc(-n2nnc(C(=O)NC(C)C)c2N)c1`?
Answer: growth at 10 µM [34]: 78.9%; growth at 10 µM [35]: 83.3%; growth at 10 µM [14]: 83.6%

Question: Which results are given for `Cc1cccc(C)c1NC(=O)c1nnn(-c2ccc(F)cc2)c1N`?
Answer: growth at 10 µM [16]: 76.8%; growth at 10 µM [7]: 64%; growth at 10 µM [36]: 78.7%; growth at 10 µM [8]: 75.9%; growth at 10 µM [14]: 66.7%

Question: Which growth at 10 µM [34] does the source give for `COc1ccc(NC(=O)c2nnn(-c3ccc(F)cc3)c2N)c(OC)c1` here?
Answer: -4.64%

Question: What about the GI50 [18] of the same compound?
Answer: 30.2 µM

Question: And the TGI [18]?
Answer: > 100 µM

Question: What about the growth at 10 µM [11] of the same compound?
Answer: -2.61%

Question: And the growth at 10 µM [1]?
Answer: -9.89%

Question: And the GI50 [20]?
Answer: 37.2 µM

Question: What about the TGI [20] of the same compound?
Answer: > 100 µM

Question: And the GI50 [22]?
Answer: 11.7 µM

Question: What about the TGI [22] of the same compound?
Answer: > 100 µM

Question: What about the GI50 [24] of the same compound?
Answer: 3.89 µM

Question: What about the TGI [24] of the same compound?
Answer: > 100 µM

Question: What about the growth at 10 µM [3] of the same compound?
Answer: -27.3%

Question: And the GI50 [25]?
Answer: 12.9 µM

Question: And the TGI [25]?
Answer: > 100 µM

Question: And the GI50 [27]?
Answer: 6.46 µM

Question: What about the TGI [27] of the same compound?
Answer: > 100 µM

Question: And the GI50 [29]?
Answer: 17.8 µM

Question: And the TGI [29]?
Answer: > 100 µM

Question: And the growth at 10 µM [31]?
Answer: -1.64%

Question: What about the GI50 [33] of the same compound?
Answer: 13.8 µM

Question: And the TGI [33]?
Answer: > 100 µM

Question: With `CCc1ccc(NC(=O)c2nnn(-c3ccc(OC)cc3)c2N)cc1` as the compound, how does the growth at 10 µM [12] read?
Answer: 56.3%

Question: What about the growth at 10 µM [9] of the same compound?
Answer: 60.9%

Question: What about the growth at 10 µM [37] of the same compound?
Answer: 62.6%
